From patent publication US5453438A, “Hydroxamic acid based collagenase inhibitors” (British Biotech Pharmaceuticals Limited, priority 1989, dated 1995)
pIC50: −log10 of the molar value.

Molecular target: collagenase
Assay: Collagenase inhibition activity (acetylated 14C collagen hydrolysis, Cawston and Barrett)
Assay type: biochemical
Details: 37°, 16 hours, pH 7.5, read-out: IC50 (inhibitor concentration effecting 50% inhibition of the collagenase)
Description: The potency of compounds of general formula I to act as inhibitors of collagenase (a metalloprotease involved in tissue degradation) was determined by the procedure of Cawston and Barrett, (Anal. Biochem., 99, 340-345, 1979) and their potency to act as inhibitors of stromelysin was determined using the procedure of Cawston et al (Biochem. J., 195, 159-165 1981), both of which techniques are to be described more fully in the examples and, to the extent that the law allows, are incorporated by reference herein.
The potency of compounds of general formula I to act as inhibitors of collagenase (a metalloprotease involved in tissue degradation) was determined by the procedure of Cawston and Barrett, (Anal. Biochem., 99, 340-345, 1979), hereby incorporated by reference, whereby a 1 mM solution of the inhibitor being tested or dilutions thereof was incubated at 37° for 16 hours with collagen and collagenase (buffered with 25 mM Hepes, pH 7.5 containing 5 mM CaCl2, 0.05% Brij 35 and 0.02% NAN3). The collagen was acetylated ^14C collagen prepared by the method of Cawston and Murphy (Methods in Enzymology, 80, 711, 1981), hereby incorporated by reference. The samples were centrifuged to sediment undigested collagen and an aliquot of the radioactive supernatant removed for assay on a scintillation counter as a measure of hydrolysis. The collagenase activity in the presence of 1 mM inhibitor, or a dilution thereof, was compared to activity in a control devoid of inhibitor and the results reported below as that inhibitor concentration effecting 50% inhibition of the collagenase (IC50).

Structure (SMILES) | pIC50
CC(=O)NCCNC(=O)[C@H](Cc1ccccc1)NC(=O)[C@@H](CC(=O)NO)CC(C)C [Example 4, [4-(N-Hydroxyamino)-2R-isobutylsuccinyl]-L-phenylalanine-N-(2-N-acetylethyl) amide] | 7.05
CC(C)C[C@H](CC(=O)NO)C(=O)N[C@@H](Cc1ccccc1)C(=O)N(C)CCO [Example 2, [4-(N-Hydroxyamino)-2R-isobutylsuccinyl]-L-phenylalanine-N-(2-hydroxyethyl)-N-methylamide] | 6.70
CCSCCNC(=O)[C@H](Cc1ccccc1)NC(=O)[C@@H](CC(=O)NO)CC(C)C [Example 3, [4-(N-Hydroxyamino)-2R-isobutylsuccinyl]-L-phenylalanine-N-(2-ethylthioethyl) amide] | 7.70
